According to patent publication US8247211B2, “Glycopeptide antibiotics” (American Cyanamid Company, priority 2001, dated 2012):
≈ marks a conversion by molar mass, not a printed value.

Assays:
[1] = test system: Staphylococcus aureus-SMITH (GC 4543); experiment: Acute lethal infection in mice (ED50); type: in vivo; details: female CD-1 mice, intraperitoneal challenge, intravenous dose 30 min. after infection, 7 day survival ratios
Summary of the method: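 ED50 derived from pooled 7-day survival in three separate experiments, five mice per dose level. Single intravenous dose 30 min after intraperitoneal infection of female CD-1 mice with enough bacteria to kill untreated animals in 24-48 h.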

[2] = Anatomic pathology (heart and kidney histopathology) in mice; type: in vivo, CD-1 mice; details: 20 mg/kg intravenously daily for 9 days, microscopic histopathology on day 10
Summary of the method: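 Histopathology on H&E-stained, paraffin-embedded sections, subjectively scored (slight, mild, moderate, marked, severe) relative to untreated controls. Dosing: glycopeptide antibiotics 20 mg/kg intravenously once daily ×9 days in 20-day-old CD-1 mice, n=5 per group including vehicle.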

Escherichia coli = experiment: In vitro antibacterial evaluation: minimum inhibitory concentration (MIC), broth dilution method; type: cell-based
Summary of the method: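 Susceptibility determined by NCCLS-recommended broth dilution (M7-A2), Muller-Hinton II […]. Concentration span 64-0.06 μg/mL, inoculum 5×10^5 CFU/mL. Isolates include strains resistant to methicillin, penicillin and/or vancomycin.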

Enterococcus sp. = experiment: as above; type: cell-based
Summary of the method: (§1)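 MIC read as lowest drug level preventing visible growth. Organisms at 5×10^5 CFU/mL were exposed to a 64-0.06 μg/mL dilution series in Muller-Hinton II […] following NCCLS broth dilution standard M7-A2.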

Staphylococcus sp. = experiment: as above; type: cell-based; details: broth dilution, 18 hours at 35° C.
Summary of the method: as §1

Streptococcus sp. = experiment: as above; type: cell-based
Summary of the method: as §1

CC(c1ccccc1)C1NC(=O)CNC(=O)C(CO)NC(=O)C(C(O)C2CNC(=N)N2C2OC(CO)C(O)C(O)C2O)NC(=O)C(C(O)C2CNC(=N)N2)NC(=O)C(Cc2ccc(OC3OC(CO)C(OC4OC5COC(c6ccc(C(=O)O)cc6)OC5C(O)C4O)C(O)C3O)cc2)NC1=O (stereo not drawn) [Example 141, Cyclo[glycyl-β-methylphenylalanyl-O-[4-O-[4,6-O-(4-carboxybenzylidene)hexopyranosyl]-hexopyranosyl]tyrosyl-3-(2-iminoimidazolidin-4-yl)seryl-3-(3-hexopyranosyl-2-iminoimidazolidin-4-yl)serylseryl]]
median effective dose (ED50), Staphylococcus aureus-SMITH (GC 4543) [1]: >8 | Anatomical Pathology (Day 10), Heart [2]: 0 | Anatomical Pathology (Day 10), Kidney [2]: +++ | MIC Escherichia coli (ATCC 25922) (Escherichia coli; strain ATCC 25922): >64 µg/mL | MIC Escherichia coli (GC 4559) (Escherichia coli; strain GC 4559): >64 µg/mL | MIC Escherichi coli (GC 4560) (Escherichia coli; strain GC 4560): >64 µg/mL | MIC Enterococcus faecalis (ATCC 29212) (Enterococcus sp.; strain ATCC 29212): >64 µg/mL | MIC Enterococcus faecalis (GC 2242) (Enterococcus sp.; strain GC 2242): >64 µg/mL | MIC Enterococcus faecium (GC 2243) (Enterococcus sp.; strain GC 2243): >64 µg/mL | MIC Enterococcus faecalis (GC 2691) (Enterococcus sp.; strain GC 2691): >64 µg/mL | MIC Enterococcus faecalis (GC 3059) (Enterococcus sp.; strain GC 3059): >64 µg/mL | MIC Enterococcus faecalis (GC 4552) (Enterococcus sp.; strain GC 4552): >64 µg/mL | MIC Enterococcus faecalis (GC 4553) (Enterococcus sp.; strain GC 4553): >64 µg/mL | MIC Enterococcus faecalis (GC 4554) (Enterococcus sp.; strain GC 4554): >64 µg/mL | MIC Enterococcus faecium (GC 4556) (Enterococcus sp.; strain GC 4556): >64 µg/mL | MIC Enterococcus faecium (GC 4557) (Enterococcus sp.; strain GC 4557): 64 µg/mL (≈ 44.8 µM) | MIC Enterococcus avium (GC 4558) (Enterococcus sp.; strain GC 4558): >64 µg/mL | MIC Enterococcus faecalis (GC 6189) (Enterococcus sp.; strain GC 6189): >64 µg/mL | MIC Coagulase Negative Staphylococcus (GC 4547) (Staphylococcus sp.; 5×10^5 CFU/mL): >64 µg/mL | MIC Coagulase Negative Staphylococcus (GC 4548) (Staphylococcus sp.; 5×10^5 CFU/mL): >64 µg/mL | MIC Coagulase Negative Staphylococcus (GC 4549) (Staphylococcus sp.; 5×10^5 CFU/mL): >64 µg/mL | MIC Coagulase Negative Staphylococcus (GC 4551) (Staphylococcus sp.; 5×10^5 CFU/mL): >64 µg/mL | MIC Coagulase Negative Staphylococcus (GC 6257) (Staphylococcus sp.; 5×10^5 CFU/mL): >64 µg/mL | MIC Staphylococcus aureus (ATCC 29213) (Staphylococcus sp.; 5×10^5 CFU/mL): >64 µg/mL | MIC Staphylococcus aureus (GC 1131) (Staphylococcus sp.; 5×10^5 CFU/mL): >64 µg/mL | MIC Staphylococcus aureus (GC 3051) (Staphylococcus sp.; 5×10^5 CFU/mL): >64 µg/mL | MIC Staphylococcus aureus (GC 3053) (Staphylococcus sp.; 5×10^5 CFU/mL): >64 µg/mL | MIC Staphylococcus aureus (GC 4541) (Staphylococcus sp.; 5×10^5 CFU/mL): >64 µg/mL | MIC Staphylococcus aureus (GC 4542) (Staphylococcus sp.; 5×10^5 CFU/mL): >64 µg/mL | MIC Staphylococcus aureus (GC 4544) (Staphylococcus sp.; 5×10^5 CFU/mL): >64 µg/mL | MIC Staphylococcus aureus (GC 4545) (Staphylococcus sp.; 5×10^5 CFU/mL): >64 µg/mL | MIC Staphylococcus aureus-SMITH (GC 4543) (Staphylococcus sp.; 5×10^5 CFU/mL): >64 µg/mL | MIC Staphylococcus haemolyticus (GC 4546) (Staphylococcus sp.; 5×10^5 CFU/mL): >64 µg/mL | MIC Staphylococcus aureus (ATCC 29213) (Staphylococcus sp.; strain ATCC 29213): >64 µg/mL | MIC Staphylococcus aureus (GC 1131) (Staphylococcus sp.; strain GC 1131): >64 µg/mL | MIC Staphylococcus aureus (GC 3051) (Staphylococcus sp.; strain GC 3051): >64 µg/mL | MIC Staphylococcus aureus (GC 3053) (Staphylococcus sp.; strain GC 3053): >64 µg/mL | MIC Staphylococcus aureus (GC 4541) (Staphylococcus sp.; strain GC 4541): >64 µg/mL | MIC Staphylococcus aureus (GC 4542) (Staphylococcus sp.; strain GC 4542): >64 µg/mL | MIC Staphylococcus aureus-SMITH (GC 4543) (Staphylococcus sp.; strain GC 4543): >64 µg/mL | MIC Staphylococcus aureus (GC 4544) (Staphylococcus sp.; strain GC 4544): >64 µg/mL | MIC Staphylococcus aureus (GC 4545) (Staphylococcus sp.; strain GC 4545): >64 µg/mL | MIC Staphylococcus haemolyticus (GC 4546) (Staphylococcus sp.; strain GC 4546): >64 µg/mL | MIC Coagulase Negative Staphylococcus (GC 4547) (Staphylococcus sp.; strain GC 4547): >64 µg/mL | MIC Coagulase Negative Staphylococcus (GC 4548) (Staphylococcus sp.; strain GC 4548): >64 µg/mL | MIC Coagulase Negative Staphylococcus (GC 4549) (Staphylococcus sp.; strain GC 4549): >64 µg/mL | MIC Coagulase Negative Staphylococcus (GC 4551) (Staphylococcus sp.; strain GC 4551): >64 µg/mL | MIC Coagulase Negative Staphylococcus (GC 6257) (Staphylococcus sp.; strain GC 6257): >64 µg/mL | MIC Streptococcus pneumoniae (ATCC 6301) (Streptococcus sp.; strain ATCC 6301): >64 µg/mL | MIC Streptococcus pneumoniae (GC 1894) (Streptococcus sp.; strain GC 1894): >64 µg/mL | MIC Streptococcus pyogenes (GC 4563) (Streptococcus sp.; strain GC 4563): >64 µg/mL | MIC Streptococcus agalactiae (GC 4564) (Streptococcus sp.; strain GC 4564): >64 µg/mL | MIC Streptococcus pneumoniae (GC 4565) (Streptococcus sp.; strain GC 4565): >64 µg/mL
